# Laboratory results published in US5484776A, “Process for the production of stable liquid form of beta-blocker-containing medicaments with controlled release of the active constituent for oral administration” (Synepos Aktiengesellschaft, priority 1993, dated 1996).
# Experiment: Drop size / reproducibility of drops of oral solutions with xanthan gum
# Type: physicochemical
# Conditions: 0.001% xanthan gum; metoprolol 200 mg/ml, sotalol 160 mg/ml, atenolol 50 mg/ml; n = 10
# From the text: It was found also in this respect that when the concentration of Xanthan Gum was varied in the solution, the scattering of the exact number of drops was higher at both below and above 0.1% than at about this particular concentration (see Table II.).
# Using a standard medicine dropper, 10 drops of the medicinal solutions prepared according to Examples 1-11 contain one usual dose of the beta-blocker in a stable form and ensuring reproducible dosage with the required accuracy, the difference by one drop corresponding to a deviation of less than 10%.
# Drop size values of different solutions of β-blockers
# and xanthan gum as auxiliary material (n = 10,
row,SMILES,Average Mass of 10 Drops
1,"CC(C)NCC(O)COc1ccc(CC(N)=O)cc1 (stereo not drawn) [Atenolol, atenolol]",0.4038 g
2,"COCCc1ccc(OCC(O)CNC(C)C)cc1 (stereo not drawn) [Metoprolol, metoprolol]",0.3490 g
3,"CC(C)NCC(O)c1ccc(NS(C)(=O)=O)cc1 (stereo not drawn) [Sotalol, sotalol]",0.3805 g

# Same assay, conditions: 0.01% xanthan gum; metoprolol 200 mg/ml, sotalol 160 mg/ml, atenolol 50 mg/ml; n = 10
row,SMILES,Average Mass of 10 Drops
1,"CC(C)NCC(O)COc1ccc(CC(N)=O)cc1 (stereo not drawn) [Atenolol, atenolol]",0.4094 g
2,"COCCc1ccc(OCC(O)CNC(C)C)cc1 (stereo not drawn) [Metoprolol, metoprolol]",0.3446 g
3,"CC(C)NCC(O)c1ccc(NS(C)(=O)=O)cc1 (stereo not drawn) [Sotalol, sotalol]",0.4067 g

# Same assay, conditions: 0.1% xanthan gum; metoprolol 200 mg/ml, sotalol 160 mg/ml, atenolol 50 mg/ml; n = 10
row,SMILES,Average Mass of 10 Drops
1,"CC(C)NCC(O)COc1ccc(CC(N)=O)cc1 (stereo not drawn) [Atenolol, atenolol]",0.4395 g
2,"COCCc1ccc(OCC(O)CNC(C)C)cc1 (stereo not drawn) [Metoprolol, metoprolol]",0.3301 g
3,"CC(C)NCC(O)c1ccc(NS(C)(=O)=O)cc1 (stereo not drawn) [Sotalol, sotalol]",0.4171 g

# Same assay, conditions: 0.25% xanthan gum; metoprolol 200 mg/ml, sotalol 160 mg/ml, atenolol 50 mg/ml; n = 10
row,SMILES,Average Mass of 10 Drops
1,"CC(C)NCC(O)COc1ccc(CC(N)=O)cc1 (stereo not drawn) [Atenolol, atenolol]",0.4604 g
2,"COCCc1ccc(OCC(O)CNC(C)C)cc1 (stereo not drawn) [Metoprolol, metoprolol]",0.3497 g
3,"CC(C)NCC(O)c1ccc(NS(C)(=O)=O)cc1 (stereo not drawn) [Sotalol, sotalol]",0.4345 g

# Same assay, conditions: 0.5% xanthan gum; metoprolol 200 mg/ml, sotalol 160 mg/ml, atenolol 50 mg/ml; n = 10
row,SMILES,Average Mass of 10 Drops
1,"CC(C)NCC(O)COc1ccc(CC(N)=O)cc1 (stereo not drawn) [Atenolol, atenolol]",0.4456 g
2,"COCCc1ccc(OCC(O)CNC(C)C)cc1 (stereo not drawn) [Metoprolol, metoprolol]",0.3559 g
3,"CC(C)NCC(O)c1ccc(NS(C)(=O)=O)cc1 (stereo not drawn) [Sotalol, sotalol]",0.4052 g
